Data published in patent publication US7504203B2 (priority 2002, dated 2009).

Biological target: GST-fused SCDH enzyme expressed from the standard strain cDNA (Pyricularia oryzae, UniProt P56221)
Type: biochemical, rice blast fungus (Pyricularia oryzae)

GST-fused SCDH enzyme expressed from the standard strain cDNA, sequence (P56221 whole entry, looked up, the tested form may be a part): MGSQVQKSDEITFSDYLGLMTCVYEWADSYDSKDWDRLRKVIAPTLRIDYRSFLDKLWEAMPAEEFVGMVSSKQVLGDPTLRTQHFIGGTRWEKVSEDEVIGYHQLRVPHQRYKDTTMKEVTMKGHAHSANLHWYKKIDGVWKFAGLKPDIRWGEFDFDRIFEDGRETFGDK

## CCC1(C(=O)N[C@H](C)c2ccc(Cl)cc2)C(C)C1(Cl)Cl (stereo partly shown) [carpropamid]
  drug sensitivity compared with SCDH enzyme in crude enzyme solution from rice blast fungus: exhibited the same drug sensitivity
